Laboratory results: patent US12263171B2, “7-, 8-, and 10-substituted amino triazolo quinazoline derivatives as adenosine receptor antagonists, pharmaceutical compositions and their use” (Merck Sharp & Dohme LLC, priority 2018, dated 2025)

How the values were obtained:
[1] = biological target: human A2a adenosine receptor (Homo sapiens (Human), UniProt P29274); experiment: A2a receptor affinity radioligand binding assay ([3H] SCH58261, membranes from HEK293 or CHO cells); details: unstarred values: radioligand binding
Procedure, shortened: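 Displacement of tritiated SCH58261 (working dilution 4 nM) from recombinant human A2a receptor membranes (HEK293 or CHO), 60 min at room temperature in Tris pH 7.4/MgCl2 buffer after 15–30 min compound preincubation. Scintillation counting after filtration; normalized percent effect fitted 4-parameter logistic for IC50.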

[2] = biological target: human A2b adenosine receptor (Homo sapiens (Human), UniProt P29275); experiment: A2B antagonism in cAMP cell-based assay (LANCE cAMP, HEK293 cells, 600 nM adenosine); details: for IC50: values marked *: cAMP cell-based assay
Method: Measurement of A2A and A2B Antagonism in cAMP Cell-Based Assay
All subsequent liquid additions were performed using a multichannel pipettor. […] After this time 5 μL of either 300 nM or 600 nM adenosine (Sigma Cat. No. A9251) for A2A and A2B respectively was added and incubated for 30 minutes at 37° C. and 5% CO2 in a humidified environment. At this time detection mix was prepared by combining the LANCE Eu-W8044 labeled streptavidin and. Biotin-cAMP in detection buffer according to the manufacturers protocol. […] Curve fitting of the percent effect data versus the log of compound concentration used a 4-parameter concentration response curve fitting algorithm to calculate IC50 values.

Chain of human A2b adenosine receptor (P29275 whole entry): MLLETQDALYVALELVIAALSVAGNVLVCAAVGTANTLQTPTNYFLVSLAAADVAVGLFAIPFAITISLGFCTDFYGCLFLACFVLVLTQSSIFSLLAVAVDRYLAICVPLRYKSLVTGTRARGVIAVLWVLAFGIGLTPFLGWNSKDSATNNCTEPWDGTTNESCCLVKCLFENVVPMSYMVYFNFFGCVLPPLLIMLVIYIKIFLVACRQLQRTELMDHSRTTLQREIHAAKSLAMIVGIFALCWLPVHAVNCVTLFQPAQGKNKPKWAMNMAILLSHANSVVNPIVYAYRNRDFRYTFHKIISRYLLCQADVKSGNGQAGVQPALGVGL
Chain of human A2a adenosine receptor (P29274 whole entry): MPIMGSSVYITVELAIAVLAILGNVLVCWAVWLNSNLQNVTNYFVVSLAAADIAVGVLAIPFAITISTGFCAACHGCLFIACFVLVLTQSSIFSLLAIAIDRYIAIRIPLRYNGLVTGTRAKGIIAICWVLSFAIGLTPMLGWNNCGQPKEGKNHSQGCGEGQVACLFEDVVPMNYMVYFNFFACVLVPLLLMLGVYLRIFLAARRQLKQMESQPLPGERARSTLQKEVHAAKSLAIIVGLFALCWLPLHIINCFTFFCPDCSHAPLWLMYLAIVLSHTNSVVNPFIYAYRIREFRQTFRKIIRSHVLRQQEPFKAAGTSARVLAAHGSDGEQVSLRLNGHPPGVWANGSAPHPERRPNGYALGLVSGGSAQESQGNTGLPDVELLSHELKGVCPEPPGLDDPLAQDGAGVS

Row | IC50 [1] | IC50 [2] | *A2B cAMP % inh. @ 10000 nM ([2]; @ 10000 nM, marked *) | *A2B cAMP ^ % @ 10000 nM ([2]; @ 10000 nM, marked *, printed with ^ and without inh.) | SMILES
1 | 2.5 nM | 29.4 nM | – | – | COc1cccc2c1nc(N)n1nc([C@@H]3CCCN(c4cnn(C5COC5)c4)C3)nc21 [Example 39, (R)-7-methoxy-2-(1-(1-(oxetan-3-yl)-1H-pyrazol-4-yl)piperidin-3-yl)-[1,2,4]triazolo[1,5-c]quinazolin-5-amine]
2 | 3.1 nM | 19.7 nM | – | – | CCC(O)(CC)Cn1cc(N2CCC[C@@H](c3nc4c5cccc(OC)c5nc(N)n4n3)C2)cn1 [Example 40]
3 | 0.8 nM | 22.2 nM | – | – | COc1cccc2c1nc(N)n1nc([C@@H]3CCCN(c4cnn(CC5(O)CCCC5)c4)C3)nc21 [Example 41, (R)-1-((4-(3-(5-amino-7-methoxy-[1,2,4]triazolo[1,5-c]quinazolin-2-yl)piperidin-1-yl)-1H-pyrazol-1-yl)methyl)cyclopentan-1-ol]
4 | 2 nM | 32.7 nM | – | – | COc1cccc2c1nc(N)n1nc([C@@H]3CCCN(c4ccn(CC(C)(C)O)n4)C3)nc21 [Example 63, (R)-1-(3-(3-(5-amino-7-methoxy-[1,2,4]triazolo[1,5-c]quinazolin-2-yl)piperidin-1-yl)-1H-pyrazol-1-yl)-2-methylpropan-2-ol]
5 | 0.8 nM | 540 nM | – | – | COc1cccc2c1nc(N)n1nc([C@@H]3CCCN(c4cc(C(F)(F)F)nn4C)C3)nc21 [Example 77, (R)-7-methoxy-2-(1-(1-methyl-3-(trifluoromethyl)-1H-pyrazol-5-yl)piperidin-3-yl)-[1,2,4]triazolo[1,5-c]quinazolin-5-amine]
6 | 3.3 nM | 2500 nM | – | – | COc1cccc2c1nc(N)n1nc([C@@H]3CCCN(c4cc(C(F)(F)F)n(C)n4)C3)nc21 [Example 78, (R)-7-methoxy-2-(1-(1-methyl-5-(trifluoromethyl)-1H-pyrazol-3-yl)piperidin-3-yl)-[1,2,4]triazolo[1,5-c]quinazolin-5-amine]
7 | 1.6 nM | 146 nM | – | – | COc1cccc2c1nc(N)n1nc([C@@H]3CCCN(c4nnn(C)c4C)C3)nc21 [Example 79, (R)-2-(1-(1,5-dimethyl-1H-1,2,3-triazol-4-yl)piperidin-3-yl)-7-methoxy-[1,2,4]triazolo[1,5-c]quinazolin-5-amine]
8 | 2.3 nM | 18.2 nM | – | – | COc1cccc2c1nc(N)n1nc([C@@H]3CCCN(c4ncc[nH]4)C3)nc21 [Example 80, (R)-2-(1-(1H-imidazol-2-yl)piperidin-3-yl)-7-methoxy-[1,2,4]triazolo[1,5-c]quinazolin-5-amine]
9 | 2.6 nM | 544 nM | – | – | COc1cccc2c1nc(N)n1nc([C@@H]3CCCN(c4nnc(C)o4)C3)nc21 [Example 82, (R)-7-methoxy-2-(1-(5-methyl-1,3,4-oxadiazol-2-yl)piperidin-3-yl)-[1,2,4]triazolo[1,5-c]quinazolin-5-amine]
10 | 0.8 nM | 78.3 nM | – | – | COc1cccc2c1nc(N)n1nc([C@@H]3CCCN(c4ncn(C)n4)C3)nc21 [Example 83, (R)-7-methoxy-2-(1-(1-methyl-1H-1,2,4-triazol-3-yl)piperidin-3-yl)-[1,2,4]triazolo[1,5-c]quinazolin-5-amine]
11 | 1.6 nM | 187 nM | – | – | COc1cccc2c1nc(N)n1nc([C@@H]3CCCN(c4cnc(C5CC5)n4C)C3)nc21 [Example 84, (R)-2-(1-(2-cyclopropyl-1-methyl-1H-imidazol-5-yl)piperidin-3-yl)-7-methoxy-[1,2,4]triazolo[1,5-c]quinazolin-5-amine]
12 | 14.9 nM | 314 nM | – | – | COc1cccc2c1nc(N)n1nc([C@@H]3CCCN(c4csc(C5CC5)n4)C3)nc21 [Example 85, (R)-2-(1-(2-cyclopropylthiazol-4-yl)piperidin-3-yl)-7-methoxy-[1,2,4]triazolo[1,5-c]quinazolin-5-amine]
13 | 2.1 nM | 146 nM | – | – | COc1cccc2c1nc(N)n1nc([C@@H]3CCCN(c4cncn4C)C3)nc21 [Example 86, (R)-7-methoxy-2-(1-(1-methyl-1H-imidazol-5-yl)piperidin-3-yl)-[1,2,4]triazolo[1,5-c]quinazolin-5-amine]
14 | 1.5 nM | 631 nM | – | – | COc1cccc2c1nc(N)n1nc([C@@H]3CCCN(c4ccn(C(C)C)c(=O)c4)C3)nc21 [Example 89, (R)-4-(3-(5-amino-7-methoxy-[1,2,4]triazolo[1,5-c]quinazolin-2-yl)piperidin-1-yl)-1-isopropylpyridin-2(1H)-one]
15 | 1.9 nM | 5930 nM | – | – | COc1cccc2c1nc(N)n1nc([C@@H]3CCCN(c4cc(=O)n(C)c5ccccc45)C3)nc21 [Example 90, (R)-4-(3-(5-amino-7-methoxy-[1,2,4]triazolo[1,5-c]quinazolin-2-yl)piperidin-1-yl)-1-methylquinolin-2(1H)-one]
16 | 1.8 nM | 775 nM | – | – | CCn1ccc(N2CCC[C@@H](c3nc4c5cccc(OC)c5nc(N)n4n3)C2)cc1=O [Example 91, (R)-4-(3-(5-amino-7-methoxy-[1,2,4]triazolo[1,5-c]quinazolin-2-yl)piperidin-1-yl)-1-ethylpyridin-2(1H)-one]
17 | 2.4 nM | 210 nM | – | – | COc1cccc2c1nc(N)n1nc([C@@H]3CCCN(c4ccc(=O)n(CC(F)(F)F)c4C)C3)nc21 [Example 94, (R)-5-(3-(5-amino-7-methoxy-[1,2,4]triazolo[1,5-c]quinazolin-2-yl)piperidin-1-yl)-6-methyl-1-(2,2,2-trifluoroethyl)pyridin-2(1H)-one]
18 | 2.3 nM | 59.1 nM | – | – | COc1cccc2c1nc(N)n1nc([C@@H]3CCCN(c4ccc(=O)n(C5CC5)c4)C3)nc21 [Example 95, (R)-5-(3-(5-amino-7-methoxy-[1,2,4]triazolo[1,5-c]quinazolin-2-yl)piperidin-1-yl)-1-cyclopropylpyridin-2(1H)-one]
19 | 4.4 nM | 62.4 nM | – | – | COc1cccc2c1nc(N)n1nc([C@@H]3CCCN(c4ccc(=O)n(CC(F)(F)F)c4)C3)nc21 [Example 97, (R)-5-(3-(5-amino-7-methoxy-[1,2,4]triazolo[1,5-c]quinazolin-2-yl)piperidin-1-yl)-1-(2,2,2-trifluoroethyl)pyridin-2(1H)-one]
20 | 12.1 nM | – | 18% inh. @ 10000 nM* | – | COc1cccc2c1nc(N)n1nc([C@@H]3CCCN(c4cnccc4C(F)(F)F)C3)nc21 [Example 108, (R)-7-methoxy-2-(1-(4-(trifluoromethyl)pyridin-3-yl)piperidin-3-yl)-[1,2,4]triazolo[1,5-c]quinazolin-5-amine]
21 | 52.6 nM | – | – | 22% @ 10000 nM* | COc1cccc2c1nc(N)n1nc([C@@H]3CCCN(c4ncc(C(F)(F)F)cn4)C3)nc21 [Example 109, (R)-7-methoxy-2-(1-(5-(trifluoromethyl)pyrimidin-2-yl)piperidin-3-yl)-[1,2,4]triazolo[1,5-c]quinazolin-5-amine]
22 | 2.2 nM | 721 nM | – | – | COc1cccc2c1nc(N)n1nc([C@@H]3CCCN(c4ncc(F)cn4)C3)nc21 [Example 110, (R)-2-(1-(5-fluoropyrimidin-2-yl)piperidin-3-yl)-7-methoxy-[1,2,4]triazolo[1,5-c]quinazolin-5-amine]
23 | 16.4 nM | – | 10% inh. @ 10000 nM* | – | COc1cccc2c1nc(N)n1nc([C@@H]3CCCN(c4nccc(C(F)(F)F)n4)C3)nc21 [Example 111, (R)-7-methoxy-2-(1-(4-(trifluoromethyl)pyrimidin-2-yl)piperidin-3-yl)-[1,2,4]triazolo[1,5-c]quinazolin-5-amine]
